Results as given in patent US11285218B2, “Degradation of bromodomain-containing protein 9 (BRD9) by conjugation of BRD9 inhibitors with E3 ligase ligand and methods of use” (Dana-Farber Cancer Institute, Inc., priority 2016, dated 2022).

Tests used:
BRD9 [1] = biological target: T1, BRD9 (Homo sapiens, UniProt Q9H8M2); assay: BRD9-ligand displacement AlphaScreen; assay type: binding
T1 construct: A construct of human BRD9 covering residues 134-0245 in the pET28PP vector; made in house; host or cells: E. coli BL21 (DE3)
T1 sequence (Q9H8M2 134-245 limits assumed): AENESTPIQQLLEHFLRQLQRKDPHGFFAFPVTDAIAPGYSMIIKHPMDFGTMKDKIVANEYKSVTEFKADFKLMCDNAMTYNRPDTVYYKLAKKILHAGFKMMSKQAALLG
Description: BRD9 assays were performed with minimal modifications from the manufacturer's protocol (PerkinElmer, USA). All reagents were diluted in 50 mM HEPES, 150 mM NaCl, 0.1% w/v BSA, 0.01% w/v Tween20, pH 7.5. […] Plates were spun down at 150×g, and 100 nL of DMSO compound stock was added from pre-diluted plates by pin transfer using a Janus Workstation (PerkinElmer, USA). Under low light, a 2× suspension of Ni-coated Acceptor Beads and Streptavidin Donor Beads, was then added at 10 ul/well to a final concentration of 5 μg/ml by EL406 automated liquid handler (Biotek, USA).

CRBN-DDB1 = biological target: T2, CRBN-DDB1 (Homo sapiens, UniProt Q96SW2); assay: CRBN-DDB1 ligand-displacement AlphaScreen; assay type: binding; details: for IC50: purified CRBN-DDB1 ligand displacement
T2 construct: made in house; host or cells: Sf9 cells (Invitrogen)
T2 sequence (Q96SW2 whole entry): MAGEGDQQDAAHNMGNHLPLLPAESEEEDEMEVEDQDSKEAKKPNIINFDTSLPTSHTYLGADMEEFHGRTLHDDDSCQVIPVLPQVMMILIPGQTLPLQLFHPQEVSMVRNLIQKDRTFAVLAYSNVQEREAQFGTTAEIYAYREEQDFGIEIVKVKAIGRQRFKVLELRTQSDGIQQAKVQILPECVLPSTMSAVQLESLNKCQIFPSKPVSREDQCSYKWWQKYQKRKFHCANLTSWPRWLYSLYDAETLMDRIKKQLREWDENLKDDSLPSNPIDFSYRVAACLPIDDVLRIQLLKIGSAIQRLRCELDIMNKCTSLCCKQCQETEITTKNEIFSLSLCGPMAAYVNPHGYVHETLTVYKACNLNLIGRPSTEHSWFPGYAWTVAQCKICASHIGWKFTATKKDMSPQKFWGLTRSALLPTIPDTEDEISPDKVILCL
T2 sequence (Q16531 whole entry partner): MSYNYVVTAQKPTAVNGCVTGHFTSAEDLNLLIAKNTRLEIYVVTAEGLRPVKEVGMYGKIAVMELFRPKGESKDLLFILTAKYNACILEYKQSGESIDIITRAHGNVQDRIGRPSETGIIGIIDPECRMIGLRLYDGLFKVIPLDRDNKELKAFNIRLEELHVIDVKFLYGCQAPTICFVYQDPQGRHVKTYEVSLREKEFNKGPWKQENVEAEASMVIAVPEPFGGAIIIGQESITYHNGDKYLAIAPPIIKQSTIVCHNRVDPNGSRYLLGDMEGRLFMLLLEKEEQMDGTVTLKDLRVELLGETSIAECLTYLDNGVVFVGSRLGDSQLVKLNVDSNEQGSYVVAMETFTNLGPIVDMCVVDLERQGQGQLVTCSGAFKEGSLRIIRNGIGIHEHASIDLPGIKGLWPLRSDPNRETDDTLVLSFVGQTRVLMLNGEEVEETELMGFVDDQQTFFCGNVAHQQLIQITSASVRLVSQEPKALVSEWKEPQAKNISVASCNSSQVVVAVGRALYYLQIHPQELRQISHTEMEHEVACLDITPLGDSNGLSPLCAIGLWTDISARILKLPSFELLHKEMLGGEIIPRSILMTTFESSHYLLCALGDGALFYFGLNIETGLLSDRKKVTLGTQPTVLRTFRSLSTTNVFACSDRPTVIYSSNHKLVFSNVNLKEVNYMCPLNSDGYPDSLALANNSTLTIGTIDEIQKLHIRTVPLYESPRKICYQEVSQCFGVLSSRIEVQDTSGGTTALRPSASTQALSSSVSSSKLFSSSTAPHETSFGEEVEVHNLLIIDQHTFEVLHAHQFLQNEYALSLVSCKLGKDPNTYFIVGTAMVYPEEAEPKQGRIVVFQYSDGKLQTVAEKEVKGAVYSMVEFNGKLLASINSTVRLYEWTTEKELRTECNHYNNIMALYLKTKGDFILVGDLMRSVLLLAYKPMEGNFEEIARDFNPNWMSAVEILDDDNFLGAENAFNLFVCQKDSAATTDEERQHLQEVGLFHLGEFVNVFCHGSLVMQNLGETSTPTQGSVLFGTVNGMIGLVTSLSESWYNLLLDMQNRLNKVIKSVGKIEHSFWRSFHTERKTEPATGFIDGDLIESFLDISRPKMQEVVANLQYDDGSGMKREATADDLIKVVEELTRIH
Description: Following a 30 min incubation, 20 uL detection solution containing Streptavidin Donor Beads and Nickel Chelate AlphaLISA® Acceptor Beads diluted to 20 ng/uL in assay buffer was added to each well.

[2] = biological target: BRD9:CRBN-DDB1 protein complex (Homo sapiens, UniProt Q96SW2+Q9H8M2); assay: BRD9:CRBN-DDB1 dimerization assay (luminescence); details: for BRD9:CRB9-DDB1 AUC / BRD9:CRB9-DDB1 Cmax: luminescence detection of dimerization assay; for formation of the BRD9:CRBN-DDB1 protein complex: relative to unmodified thalidomide, in words
Sequence of BRD9:CRBN-DDB1 protein complex (Q96SW2 whole entry, one chain of several): as the sequence (Q96SW2 whole entry) above
Sequence of BRD9:CRBN-DDB1 protein complex (Q16531 whole entry partner, one chain of several): as the sequence (Q16531 whole entry partner) above
Description: To measure this activity, a homogenous luminescence assay was developed to report on compound-induced proximity of BRD9 and CRBN.
To detect CRBN-DDBI/BRD4 dimerization, we adapted bead-based AlphaScreen technology. […] Compounds were then pinned at 100 nL per well from DMSO stock. After 1 incubation at room temperature. Nickel Chelate AlphaLISA Acceptor and Glutathione AlphaLISA Donor beads (PerkinElmer) were diluted in assay buffer to 20 μg/mL and added at 20 μl per well.

BRD4(1) = BRD4(1) (Homo sapiens, UniProt O60885); assay: BRD4(1) ligand-displacement AlphaScreen; assay type: binding; parameters: substituting protein and biotin-probe components for BRD4(1) protein at 20 nM final; His tag (inferred from Ni-coated acceptor beads)
BRD9 [3] = biological target: T3, BRD9 (Homo sapiens, UniProt Q9H8M2); assay: BRD9 immunoblot in MOLM-13; details: MOLM-13, 4 hour treatment, indicated concentrations; in words
T3 sequence (Q9H8M2 1-597): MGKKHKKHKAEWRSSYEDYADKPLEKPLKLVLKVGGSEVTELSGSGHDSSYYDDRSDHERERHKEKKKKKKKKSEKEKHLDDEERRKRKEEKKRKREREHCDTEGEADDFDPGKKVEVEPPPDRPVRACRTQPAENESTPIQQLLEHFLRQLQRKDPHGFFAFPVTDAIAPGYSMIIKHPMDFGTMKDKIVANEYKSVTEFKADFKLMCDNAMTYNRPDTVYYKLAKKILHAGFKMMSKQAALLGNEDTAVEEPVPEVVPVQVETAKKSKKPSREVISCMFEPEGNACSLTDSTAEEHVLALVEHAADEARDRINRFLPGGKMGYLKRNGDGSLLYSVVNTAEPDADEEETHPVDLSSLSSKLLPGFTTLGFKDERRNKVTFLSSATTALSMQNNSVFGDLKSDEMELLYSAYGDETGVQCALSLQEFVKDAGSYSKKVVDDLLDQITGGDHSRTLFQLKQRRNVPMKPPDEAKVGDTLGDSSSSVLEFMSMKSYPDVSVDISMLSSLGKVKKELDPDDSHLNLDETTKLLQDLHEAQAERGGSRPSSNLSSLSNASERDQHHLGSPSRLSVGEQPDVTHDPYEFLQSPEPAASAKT
Description: In additional experiments, cells were washed with PBS, before being lysed in RIPA buffer supplemented with 1×HALT™ protease inhibitor cocktail (Thermo Scientific) for 10 min on ice, followed by low-amplitude sonication for 10 seconds at 4° C. […] In soluble material was removed by centrifugation at 20,000×g for 20 min before protein content was quantified by BCA assay (Pierce). […] Blots were imaged using fluorescence-labeled secondary antibodies (LI-COR) on the OdysseyCLxImager (LI-COR).

BRD9 [4] = biological target: T3, BRD9; assay: BRD9 degradation / cellular activity (Western blot, cell line not stated); details: cell line not given

COc1cc(-c2cn(C)c(=O)c3cc(C(=N)NC4CCS(=O)(=O)CC4)sc23)ccc1OCC(=O)NCCCCNC(=O)COc1cccc2c1C(=O)N(C1CCC(=O)NC1=O)C2=O (stereo not shown) [Compound I-1]
IC50 (BRD9 [1]): 13.5 nM | IC50 (CRBN-DDB1): 48.9 nM | BRD9:CRB9-DDB1 AUC [2]: 44270 | BRD9:CRB9-DDB1 Cmax [2]: 42.5 nM | formation of the BRD9:CRBN-DDB1 protein complex [2]: significantly induce formation of the complex | IC50 (BRD4(1)): 3780 nM

COc1cc(-c2cn(C)c(=O)c3cc(C(=N)NC4CCS(=O)(=O)CC4)sc23)ccc1OCC(=O)NCCCCCCCCNC(=O)COc1cccc2c1C(=O)N(C1CCC(=O)NC1=O)C2=O (stereo not shown) [Compound I-2]
IC50 (BRD9 [1]): 18.9 nM | IC50 (CRBN-DDB1): 43.7 nM | BRD9 protein level (immunoblot) (BRD9 [3]): Marked protein loss | BRD9:CRBN-DDB1 dimerization, comparison in words [2]: improved dimerization relative to the short four-carbon linked compound I-1 | BRD9:CRB9-DDB1 AUC [2]: 71477 | BRD9:CRB9-DDB1 Cmax [2]: 95.1 nM | formation of the BRD9:CRBN-DDB1 protein complex [2]: significantly induce formation of the complex | IC50 (BRD4(1)): 3390 nM

COc1cc(-c2cn(C)c(=O)c3cc(C(=N)NC4CCS(=O)(=O)CC4)sc23)ccc1OCC(=O)NCCCOCCOCCOCCCNC(=O)COc1cccc2c1C(=O)N(C1CCC(=O)NC1=O)C2=O (stereo not shown) [Compound I-3]
IC50 (BRD9 [1]): 36.5 nM | IC50 (CRBN-DDB1): 49.5 nM | BRD9:CRBN-DDB1 dimerization, comparison in words [2]: reduced this activity | BRD9:CRB9-DDB1 AUC [2]: 50182 | BRD9:CRB9-DDB1 Cmax [2]: 44.9 nM | formation of the BRD9:CRBN-DDB1 protein complex [2]: significantly induce formation of the complex | IC50 (BRD4(1)): 3140 nM

COc1cc(-c2cn(C)c(=O)c3cc(C(=N)NC4CCS(=O)(=O)CC4)sc23)ccc1OCC(=O)NCCCCCCCCNc1cccc2c1C(=O)N(C1CCC(=O)NC1=O)C2=O (stereo not shown) [Compound I-5]
IC50 (BRD9 [1]): 15.5 nM | IC50 (CRBN-DDB1): 10.8 nM | BRD9 protein level (immunoblot) (BRD9 [3]): effectively downregulate BRD9 over a broad range of concentrations | BRD9:CRB9-DDB1 AUC [2]: 67227 | BRD9:CRB9-DDB1 Cmax [2]: 37.4 nM | formation of the BRD9:CRBN-DDB1 protein complex [2]: significantly induce formation of the complex | IC50 (BRD4(1)): 1560 nM

COc1cc(-c2cn(C)c(=O)c3cc(C(=N)NC4CCS(=O)(=O)CC4)sc23)ccc1OCC(=O)N1CCC(C2CCN(C(=O)COc3cccc4c3C(=O)N(C3CCC(=O)NC3=O)C4=O)CC2)CC1 (stereo not shown) [Compound I-7]
IC50 (BRD9 [1]): 12.5 nM | IC50 (CRBN-DDB1): 16 nM | BRD9:CRBN-DDB1 dimerization, comparison in words [2]: significant improvement | BRD9:CRB9-DDB1 AUC [2]: 107794 | BRD9:CRB9-DDB1 Cmax [2]: 54.0 nM | formation of the BRD9:CRBN-DDB1 protein complex [2]: significantly induce formation of the complex | BRD9 degradation / cellular potency, in words (BRD9 [4]): significant improvement | IC50 (BRD4(1)): 1510 nM

COc1cc(-c2cn(C)c(=O)c3cc(C(=N)NC4CCS(=O)(=O)CC4)sc23)ccc1OCC(=O)NCCCCCCOc1cccc2c1C(=O)N(C1CCC(=O)NC1=O)C2=O (stereo not shown) [Compound I-8]
IC50 (BRD9 [1]): 30 nM | CRBN-DDB1 affinity, in words (CRBN-DDB1; comparison of phthalimide linkages): slightly improved binding over acetamide ethers I-1 and I-2 | IC50 (CRBN-DDB1): 20.1 nM | BRD9 protein level (immunoblot) (BRD9 [3]): Marked protein loss | BRD9:CRBN-DDB1 dimerization, comparison in words [2]: further improved dimerization relative to compound I-2 | BRD9:CRB9-DDB1 AUC [2]: 144813 | BRD9:CRB9-DDB1 Cmax [2]: 111 nM | formation of the BRD9:CRBN-DDB1 protein complex [2]: significantly induce formation of the complex | IC50 (BRD4(1)): 7000 nM

COc1cc(-c2cn(C)c(=O)c3cc(C(=N)NC4CCS(=O)(=O)CC4)sc23)ccc1OCC(=O)NCCCCCCCCNc1ccc2c(c1)C(=O)N(C1CCC(=O)NC1=O)C2=O (stereo not shown) [Compound I-9]
IC50 (BRD9 [1]): 11.5 nM | IC50 (CRBN-DDB1): 17.6 nM | BRD9:CRBN-DDB1 dimerization, comparison in words [2]: superior | BRD9:CRB9-DDB1 AUC [2]: 46614 | BRD9:CRB9-DDB1 Cmax [2]: 33.7 nM | formation of the BRD9:CRBN-DDB1 protein complex [2]: significantly induce formation of the complex | BRD9 degradation / cellular potency, in words (BRD9 [4]): superior | IC50 (BRD4(1)): 1110 nM

COc1cc(-c2cn(C)c(=O)c3cnccc23)cc(OC)c1CN(C)CC(=O)NCCCCCCNc1ccc2c(c1)C(=O)N(C1CCC(=O)NC1=O)C2=O (stereo not shown) [Compound I-12]
IC50 (BRD9 [1]): 56.6 nM | IC50 (CRBN-DDB1): 8.5 nM | BRD9:CRB9-DDB1 AUC [2]: 60256 | BRD9:CRB9-DDB1 Cmax [2]: 8.39 nM | formation of the BRD9:CRBN-DDB1 protein complex [2]: significantly induce formation of the complex | IC50 (BRD4(1)): > 50000 nM

COc1cc(-c2cn(C)c(=O)c3cnccc23)cc(OC)c1CN(C)CC(=O)NCCCCCCCCNc1cccc2c1C(=O)N(C1CCC(=O)NC1=O)C2=O (stereo not shown) [Compound I-15]
IC50 (BRD9 [1]): 83.1 nM | IC50 (CRBN-DDB1): 8.35 nM | BRD9:CRB9-DDB1 AUC [2]: 139380 | BRD9:CRB9-DDB1 Cmax [2]: 8.22 nM | formation of the BRD9:CRBN-DDB1 protein complex [2]: significantly induce formation of the complex | IC50 (BRD4(1)): > 50000 nM

COc1cc(-c2cn(C)c(=O)c3cnccc23)cc(OC)c1CN(C)CC(=O)NCCOCCOCCOCC(=O)N[C@@H](C(=O)N1C[C@@H](O)C[C@@H]1C(=O)NCc1ccc(-c2scnc2C)cc1)C(C)(C)C [Compound I-23]
IC50 (BRD9 [1]): 43.2 nM | IC50 (BRD4(1)): > 50000 nM

COc1cc(-c2cn(C)c(=O)c3cnccc23)cc(OC)c1CN(C)CC(=O)NCCCCCCCCNC(=O)COc1cccc2c1C(=O)N(C1CCC(=O)NC1=O)C2=O (stereo not shown) [Compound I-24]
IC50 (BRD9 [1]): 48 nM | IC50 (CRBN-DDB1): 14.8 nM | BRD9:CRB9-DDB1 AUC [2]: 58563 | BRD9:CRB9-DDB1 Cmax [2]: 27.3 nM | formation of the BRD9:CRBN-DDB1 protein complex [2]: significantly induce formation of the complex | IC50 (BRD4(1)): > 50000 nM
